Results: ChEMBL document CHEMBL5241131, “2-Anilino-4-(1-methyl-1H-pyrazol-4-yl)pyrimidine-derived CDK2 inhibitors as anticancer agents: Design, synthesis & evaluation” (Bioorg Med Chem, 2023)
Active and inactive are the calls of the source. The calls are words filed in the database; no cut-off is given here.

Experiments:
[1] = biological target: Cyclin-dependent kinase 1/cyclin B (Homo sapiens) (UniProt P06493+P14635+Q8WWL7+O95067); experiment: Inhibition of CDK1/Cyclin B (unknown origin) at 1 uM incubated for 30 to 60 mins presence of dithiothreitol by Cheng-Prusoff equation analysis relative to control; type: protein-complex assay; conditions: time 30-60 min
[2] = biological target: T1, Cyclin-dependent kinase 2/cyclin E (Homo sapiens, UniProt P24941); experiment: Inhibition of CDK2/cyclin E (unknown origin) assessed as inhibition constant incubated for 30 to 60 mins presence of dithiothreitol by Cheng-Prusoff equation analysis; type: protein-complex assay
[3] = test system: A2780; experiment: Antiproliferative activity against human A2780 cells assessed as inhibition of cell growth incubated for 72 hrs by MTT assay; type: functional
[4] = biological target: Cyclin-dependent kinase 5/CDK5 activator 1 (Homo sapiens) (UniProt Q00535+Q15078); experiment: Inhibition of CDK5/p25 (unknown origin) at 1 uM incubated for 30 to 60 mins presence of dithiothreitol by Cheng-Prusoff equation analysis relative to control; type: protein-complex assay; conditions: time 30-60 min
[5] = biological target: CDK9/cyclin T1 (Homo sapiens, UniProt P50750); experiment: Inhibition of CDK9/cyclin T1 (unknown origin) assessed as inhibition constant incubated for 30 to 60 mins presence of dithiothreitol by Cheng-Prusoff equation analysis; type: protein-complex assay
[6] = test system: A2780; experiment: Antiproliferative activity against human A2780 cells assessed as inhibition of cell growth at 1 uM incubated for 72 hrs by MTT assay; type: functional; parameters: scale not given: the % may be the effect or the level left
[7] = biological target: CDK9/cyclin T1 (Homo sapiens) (UniProt O60563+P50750); experiment: Inhibition of CDK9/cyclin T1 (unknown origin) at 1 uM incubated for 30 to 60 mins presence of dithiothreitol by Cheng-Prusoff equation analysis relative to control; type: protein-complex assay; conditions: time 30-60 min
[8] = biological target: Cyclin-dependent kinase 2/cyclin E (Homo sapiens) (UniProt P24864+P24941+O96020); experiment: Inhibition of CDK2/cyclin E (unknown origin) at 1 uM incubated for 30 to 60 mins presence of dithiothreitol by Cheng-Prusoff equation analysis relative to control; type: protein-complex assay; conditions: time 30-60 min
[9] = biological target: Cyclin-dependent kinase 5/CDK5 activator 1 (Homo sapiens, UniProt Q00535); experiment: Inhibition of CDK5/p25 (unknown origin) assessed as inhibition constant incubated for 30 to 60 mins presence of dithiothreitol by Cheng-Prusoff equation analysis; type: protein-complex assay
[10] = biological target: T2, Cyclin-dependent kinase 1/cyclin B (Homo sapiens, UniProt P06493); experiment: Inhibition of CDK1/Cyclin B (unknown origin) assessed as inhibition constant incubated for 30 to 60 mins presence of dithiothreitol by Cheng-Prusoff equation analysis; type: protein-complex assay
[11] = test system: NCI-H82; experiment: Antiproliferative activity against human NCI-H82 cells assessed as inhibition of cell growth incubated for 72 hrs by MTT assay; type: functional
[12] = test system: NCI-H460; experiment: Antiproliferative activity against human NCI-H460 cells assessed as inhibition of cell growth incubated for 72 hrs by MTT assay; type: functional
[13] = test system: COLO 205; experiment: Antiproliferative activity against human COLO 205 cells assessed as inhibition of cell growth incubated for 72 hrs by MTT assay; type: functional
[14] = test system: U-937; experiment: Antiproliferative activity against human U-937 cells assessed as inhibition of cell growth incubated for 72 hrs by MTT assay; type: functional
[15] = test system: HCT-116; experiment: Antiproliferative activity against human HCT-116 cells assessed as inhibition of cell growth incubated for 72 hrs by MTT assay; type: functional
[16] = test system: OV-90; experiment: Antiproliferative activity against human OV-90 cells assessed as inhibition of cell growth incubated for 72 hrs by MTT assay; type: functional
[17] = Antiproliferative activity against human COV318 cells assessed as inhibition of cell growth incubated for 72 hrs by MTT assay; type: functional
[18] = test system: ES-2; experiment: Antiproliferative activity against human ES2 cells assessed as inhibition of cell growth incubated for 72 hrs by MTT assay; type: functional
[19] = test system: OVCAR-5; experiment: Antiproliferative activity against human OVCAR-5 cells assessed as inhibition of cell growth incubated for 72 hrs by MTT assay; type: functional
[20] = test system: HT-29; experiment: Antiproliferative activity against human HT-29 cells assessed as inhibition of cell growth incubated for 72 hrs by MTT assay; type: functional
[21] = Antiproliferative activity against human COV504 cells assessed as inhibition of cell growth incubated for 72 hrs by MTT assay; type: functional
[22] = test system: MDA-MB-231; experiment: Antiproliferative activity against human MDA-MB-231 cells assessed as inhibition of cell growth incubated for 72 hrs by MTT assay; type: functional
[23] = test system: KM12; experiment: Antiproliferative activity against human KM12 cells assessed as inhibition of cell growth incubated for 72 hrs by MTT assay; type: functional
[24] = test system: U-251; experiment: Antiproliferative activity against human U-251 cells assessed as inhibition of cell growth incubated for 72 hrs by MTT assay; type: functional
[25] = test system: OAW-28; experiment: Antiproliferative activity against human OAW-28 cells assessed as inhibition of cell growth incubated for 72 hrs by MTT assay; type: functional
[26] = test system: MV4-11; experiment: Antiproliferative activity against human MV4-11 cells assessed as inhibition of cell growth incubated for 72 hrs by MTT assay; type: functional
[27] = test system: HCT-116; experiment: Induction of apoptosis in human HCT-116 cells assessed as increase in cleaved PARP level at 1 uM incubated for 24 hrs by Western blot analysis; type: functional, cell-based
[28] = test system: HCT-116; experiment: Induction of apoptosis in human HCT-116 cells assessed as necrotic cells at 1 uM incubated for 72 hrs by AnnexinV-FITC/propidium iodide staining based flow cytometry (Rvb =0.71%); type: functional
[29] = test system: HCT-116; experiment: Induction of apoptosis in human HCT-116 cells assessed as late apoptotic cells at 1 uM incubated for 72 hrs by AnnexinV-FITC/propidium iodide staining based flow cytometry (reference value: 2.91%); type: functional
[30] = test system: HCT-116; experiment: Induction of cell cycle arrest in human HCT-116 cells assessed as accumulation of cells at S phase at 1 uM incubated for 24 hrs by propidium iodide staining based flow cytometry (reference value: 18.01%); type: functional
[31] = test system: HCT-116; experiment: Induction of apoptosis in human HCT-116 cells assessed as viable cells at 1 uM incubated for 72 hrs by AnnexinV-FITC/propidium iodide staining based flow cytometry (reference value: 93.43%); type: functional; conditions: read-out: Activity
[32] = test system: HCT-116; experiment: Induction of apoptosis in human HCT-116 cells assessed as early apoptotic cells at 1 uM incubated for 72 hrs by AnnexinV-FITC/propidium iodide staining based flow cytometry (reference value: 2.95%); type: functional
[33] = test system: HCT-116; experiment: Induction of cell cycle arrest in human HCT-116 cells assessed as accumulation of cells at sub G1 phase at 1 uM incubated for 24 hrs by propidium iodide staining based flow cytometry (reference value: 0.24%); type: functional
[34] = test system: HCT-116; experiment: Induction of cell cycle arrest in human HCT-116 cells assessed as accumulation of cells at G1 phase at 1 uM incubated for 24 hrs by propidium iodide staining based flow cytometry (reference value: 51.33%); type: functional
[35] = test system: HCT-116; experiment: Induction of cell cycle arrest in human HCT-116 cells assessed as accumulation of cells at G2/M phase at 1 uM incubated for 24 hrs by propidium iodide staining based flow cytometry (reference value: 28.37%); type: functional
[36] = biological target: T2, Cyclin-dependent kinase 1/cyclin B; experiment: Inhibition of CDK1/Cyclin B (unknown origin) assessed as inhibition constant; type: protein-complex assay
[37] = biological target: T1, Cyclin-dependent kinase 2/cyclin E; experiment: Inhibition of CDK2/cyclin E (unknown origin) assessed as inhibition constant; type: protein-complex assay

Sequence of Cyclin-dependent kinase 5/CDK5 activator 1 (Q00535 whole entry): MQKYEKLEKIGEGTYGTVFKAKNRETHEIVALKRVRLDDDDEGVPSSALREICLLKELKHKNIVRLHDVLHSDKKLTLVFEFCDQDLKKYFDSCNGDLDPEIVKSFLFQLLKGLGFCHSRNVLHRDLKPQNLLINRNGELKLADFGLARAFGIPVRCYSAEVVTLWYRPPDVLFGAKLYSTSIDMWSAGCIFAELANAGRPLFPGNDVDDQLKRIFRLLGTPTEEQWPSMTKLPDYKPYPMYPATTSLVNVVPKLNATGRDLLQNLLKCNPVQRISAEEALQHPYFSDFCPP
Sequence of Cyclin-dependent kinase 5/CDK5 activator 1 (Q15078 whole entry, further chain): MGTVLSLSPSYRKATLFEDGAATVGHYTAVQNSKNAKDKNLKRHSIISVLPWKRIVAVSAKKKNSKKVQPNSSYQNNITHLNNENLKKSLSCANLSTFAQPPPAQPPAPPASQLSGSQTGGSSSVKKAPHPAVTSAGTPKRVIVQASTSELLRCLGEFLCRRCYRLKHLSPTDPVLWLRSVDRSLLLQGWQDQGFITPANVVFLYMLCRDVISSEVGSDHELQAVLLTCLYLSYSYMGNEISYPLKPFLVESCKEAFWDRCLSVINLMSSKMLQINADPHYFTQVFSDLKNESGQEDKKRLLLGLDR
Sequence of Cyclin-dependent kinase 5/CDK5 activator 1 (Homo sapiens) (Q00535 whole entry): as the sequence (Q00535 whole entry) above
Sequence of Cyclin-dependent kinase 5/CDK5 activator 1 (Homo sapiens) (Q15078 99-307 partner limits assumed): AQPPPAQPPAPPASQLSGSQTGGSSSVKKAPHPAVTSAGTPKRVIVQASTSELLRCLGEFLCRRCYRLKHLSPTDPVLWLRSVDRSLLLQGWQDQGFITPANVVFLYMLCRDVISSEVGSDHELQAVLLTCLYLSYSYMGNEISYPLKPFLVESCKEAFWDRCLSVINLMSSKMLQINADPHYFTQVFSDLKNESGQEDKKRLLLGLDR
Sequence of CDK9/cyclin T1 (O60563 whole entry): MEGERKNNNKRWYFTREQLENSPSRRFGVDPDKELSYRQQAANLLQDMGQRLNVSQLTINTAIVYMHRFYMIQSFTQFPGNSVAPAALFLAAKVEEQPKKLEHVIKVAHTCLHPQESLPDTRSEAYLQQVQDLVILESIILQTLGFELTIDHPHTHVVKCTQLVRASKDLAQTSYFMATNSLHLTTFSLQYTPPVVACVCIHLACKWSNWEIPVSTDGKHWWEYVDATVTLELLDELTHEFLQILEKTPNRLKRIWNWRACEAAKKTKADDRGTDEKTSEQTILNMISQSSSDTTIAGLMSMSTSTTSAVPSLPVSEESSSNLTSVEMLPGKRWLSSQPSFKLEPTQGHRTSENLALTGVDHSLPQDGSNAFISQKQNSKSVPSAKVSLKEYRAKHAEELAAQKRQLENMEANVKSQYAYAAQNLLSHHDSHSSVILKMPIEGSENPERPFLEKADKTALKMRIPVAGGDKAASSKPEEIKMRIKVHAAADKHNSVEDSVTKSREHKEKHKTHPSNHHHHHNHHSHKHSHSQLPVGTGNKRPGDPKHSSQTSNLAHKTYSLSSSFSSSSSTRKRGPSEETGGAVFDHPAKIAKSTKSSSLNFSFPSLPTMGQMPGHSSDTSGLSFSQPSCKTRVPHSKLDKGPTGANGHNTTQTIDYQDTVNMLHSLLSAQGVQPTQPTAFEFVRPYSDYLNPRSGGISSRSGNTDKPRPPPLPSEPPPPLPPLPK
Sequence of CDK9/cyclin T1 (P50750 whole entry): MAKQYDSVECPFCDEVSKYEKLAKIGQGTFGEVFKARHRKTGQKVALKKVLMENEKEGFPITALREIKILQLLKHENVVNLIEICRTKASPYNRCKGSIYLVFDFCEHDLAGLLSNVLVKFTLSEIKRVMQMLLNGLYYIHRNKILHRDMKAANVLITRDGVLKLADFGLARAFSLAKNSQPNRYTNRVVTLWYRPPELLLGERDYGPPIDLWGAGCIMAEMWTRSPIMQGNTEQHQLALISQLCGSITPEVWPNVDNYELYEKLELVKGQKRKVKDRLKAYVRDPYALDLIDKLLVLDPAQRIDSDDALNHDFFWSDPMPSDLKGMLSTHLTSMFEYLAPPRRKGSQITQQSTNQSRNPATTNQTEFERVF

| Compound | inhibition [1] | Ki [2] | GI50 [3] | inhibition [4] | Activity [6] | inhibition [7] | inhibition [8] | Ki [9] | Ki [10] | further results |
| --- | --- | --- | --- | --- | --- | --- | --- | --- | --- | --- |
| Cn1cc(-c2nc(Nc3cccc([N+](=O)[O-])c3)ncc2F)cn1 | 54% | 0.087 µM | 0.113 µM | 67% | – | – | – | – | – | Ki [5]: 0.147 µM |
| Nc1cc(-c2cnn(Cc3ccccc3)c2)nc(Nc2cccc(S(N)(=O)=O)c2)n1 | 6% | – | – | 40% | 0% | 40% | 53% | – | – | – |
| Cn1cc(-c2nc(Nc3cccc(Cl)c3)ncc2F)cn1 | 50% | – | – | 46% | 12% | 69% | 57% | – | – | – |
| Cn1cc(-c2nc(Nc3cccc(S(=O)(=O)C(F)(F)F)c3)ncc2Cl)cn1 | 2% | – | 0.125 µM | 58% | 63% | 45% | 53% | – | – | – |
| Cn1cc(-c2nc(Nc3ccc(S(C)(=O)=O)cc3)ncc2F)cn1 | – | – | – | – | 5% | 33% | – | 0.042 µM | 0.146 µM | – |
| Cn1cc(-c2nc(Nc3cccc(S(N)(=O)=O)c3)ncc2F)cn1 | – | 0.023 µM | 0.018 µM | – | – | – | – | 0.077 µM | 0.005 µM | GI50 [11]: 0.119 µM; GI50 [12]: 0.162 µM; GI50 [13]: 0.064 µM; GI50 [14]: 0.025 µM; GI50 [15]: 0.065 µM; GI50 [16]: 0.083 µM; GI50 [17]: 0.079 µM; GI50 [18]: 0.109 µM; GI50 [19]: 0.08 µM; GI50 [20]: 0.081 µM; GI50 [21]: 0.106 µM; GI50 [22]: 0.129 µM; GI50 [23]: 0.09 µM; GI50 [24]: 0.154 µM; GI50 [25]: 0.149 µM; GI50 [26]: 0.032 µM; Ki [5]: 0.026 µM |
| CNc1nc(C)c(-c2nc(Nc3cccc(S(N)(=O)=O)c3)ncc2F)s1 [ASNUCICLIB] | – | – | – | – | – | – | – | – | – | Activity [27]: Active; Activity [28]: 0.95%; Activity [29]: 6.85%; Activity [30]: 16.81%; viability at 1 µM [31]: 77%; Activity [32]: 15.19%; Activity [33]: 1.21%; Activity [34]: 28.88%; Activity [35]: 53.11% |
| Cn1cc(-c2nc(Nc3ccc(F)c(C(F)(F)F)c3)ncc2F)cn1 | 22% | – | – | 16% | 28% | 51% | 1% | – | – | – |
| Cn1cc(-c2nc(Nc3cccc(S(=O)(=O)C(F)(F)F)c3)ncc2F)cn1 | 42% | – | 0.215 µM | 46% | – | 20% | 1% | – | – | – |
| Cc1nn(C)cc1-c1nc(NC2CCN(S(C)(=O)=O)CC2)ncc1Cl | – | 0.016 µM | – | – | 20% | 27% | – | 0.002 µM | 0.012 µM | – |
| Cn1cc(-c2nc(Nc3ccc(S(=O)(=O)C(F)(F)F)cc3)ncc2F)cn1 | 54% | 0.07 µM | – | 46% | 54% | 6% | 15% | – | – | – |
| Cn1cc(-c2nc(Nc3ccc(S(N)(=O)=O)cc3)ncc2F)cn1 | – | 0.021 µM | 0.232 µM | – | – | – | – | 0.019 µM | 0.006 µM | Ki [5]: 0.271 µM |
| Cn1cc(-c2nc(Nc3ccc(C(F)(F)F)c(Cl)c3)ncc2F)cn1 | 8% | – | – | 3% | 32% | 39% | 10% | – | – | – |
| Cn1cc(-c2nc(Nc3ccc(S(C)(=O)=O)cc3)ncc2Cl)cn1 | – | 0.007 µM | – | – | 63% | – | – | 0.036 µM | 0.006 µM | Ki [5]: 0.229 µM |
| Cn1nccc1-c1nc(Nc2cccc(S(N)(=O)=O)c2)ncc1F | 65% | 0.171 µM | – | 48% | 0% | 59% | – | – | – | – |
| Cn1cc(-c2nc(Nc3cccc(S(N)(=O)=O)c3)ncc2Cl)cn1 | – | 0.176 µM | 0.08 µM | – | – | – | – | 0.092 µM | 0.005 µM | Ki [5]: 0.301 µM |
| Cn1cc(-c2nc(NC3CCN(S(C)(=O)=O)CC3)ncc2F)cn1 | – | 0.018 µM | – | – | 17% | 55% | – | 0.036 µM | 0.099 µM | – |
| Cn1cc(-c2nc(NC3CCN(S(C)(=O)=O)CC3)ncc2Cl)cn1 | – | 0.008 µM | – | – | 45% | 39% | – | 0.009 µM | 0.026 µM | – |
| CC[C@@H](Nc1nc(NCc2cnc(C)cc2C)c2ncn(C(C)C)c2n1)[C@H](C)O | – | – | – | – | – | – | – | – | – | Ki [36]: 0.578 µM; Ki [37]: 0.005 µM |
| Cn1cc(-c2nc(Nc3cccc([N+](=O)[O-])c3)ncc2Cl)cn1 | 24% | – | 0.007 µM | 56% | – | 73% | 48% | – | – | – |
| Cn1cc(-c2cc(N)nc(Nc3cccc(S(N)(=O)=O)c3)n2)cn1 | 4% | – | – | 41% | 0% | 57% | 13% | – | – | – |
